Source: US9809623B2, “α4β7 peptide monomer and dimer antagonists” (Protagonist Therapeutics, Inc., priority 2014, dated 2017)
Numbered stars: 1 amine (or outer) side, 2 acyl side, 3 side chain; on linkers, the order of the positions; unused ones are H or OH. Bridge positions count the residues as written; N and C are the ends. Square brackets hold non-standard residues; d marks the D form. Peptide text beside a SMILES is read from it. I, II: the chains in the order shown. * marks the point of attachment. Phe(4-tBu) = CC(C)(C)c1ccc(C[C@H](N)C(=O)O)cc1; Bip = N[C@@H](Cc1ccc(-c2ccccc2)cc1)C(=O)O; Phe(4-CN) = N#Cc1ccc(C[C@H](N)C(=O)O)cc1; 2Nal = N[C@@H](Cc1ccc2ccccc2c1)C(=O)O; d2Nal = N[C@H](Cc1ccc2ccccc2c1)C(=O)O; Diglycolyl = O=C(COCC(=O)[*:2])[*:1]; NMeR = CN[C@@H](CCCNC(=N)N)C(=O)O; Myristoyl = CCCCCCCCCCCCCC(=O)*; Tic = O=C(O)[C@@H]1Cc2ccccc2CN1; β3hE = N[C@@H](CCC(=O)O)CC(=O)O; NMeK = CN[C@@H](CCCCN)C(=O)O; Pen = CC(C)(S)[C@H](N)C(=O)O

What follows are compounds tested against α4β7 (Homo sapiens, UniProt P13612+P26010) (assay: α4β7-MAdCAM Cell Adhesion Assay (RPMI 8866 human cells)). Conditions: Table 3-B, Potency (α4β7); range classes; read-out: α4β7 cell (Hu) IC50.
α4β7, sequence (P13612 34-1032): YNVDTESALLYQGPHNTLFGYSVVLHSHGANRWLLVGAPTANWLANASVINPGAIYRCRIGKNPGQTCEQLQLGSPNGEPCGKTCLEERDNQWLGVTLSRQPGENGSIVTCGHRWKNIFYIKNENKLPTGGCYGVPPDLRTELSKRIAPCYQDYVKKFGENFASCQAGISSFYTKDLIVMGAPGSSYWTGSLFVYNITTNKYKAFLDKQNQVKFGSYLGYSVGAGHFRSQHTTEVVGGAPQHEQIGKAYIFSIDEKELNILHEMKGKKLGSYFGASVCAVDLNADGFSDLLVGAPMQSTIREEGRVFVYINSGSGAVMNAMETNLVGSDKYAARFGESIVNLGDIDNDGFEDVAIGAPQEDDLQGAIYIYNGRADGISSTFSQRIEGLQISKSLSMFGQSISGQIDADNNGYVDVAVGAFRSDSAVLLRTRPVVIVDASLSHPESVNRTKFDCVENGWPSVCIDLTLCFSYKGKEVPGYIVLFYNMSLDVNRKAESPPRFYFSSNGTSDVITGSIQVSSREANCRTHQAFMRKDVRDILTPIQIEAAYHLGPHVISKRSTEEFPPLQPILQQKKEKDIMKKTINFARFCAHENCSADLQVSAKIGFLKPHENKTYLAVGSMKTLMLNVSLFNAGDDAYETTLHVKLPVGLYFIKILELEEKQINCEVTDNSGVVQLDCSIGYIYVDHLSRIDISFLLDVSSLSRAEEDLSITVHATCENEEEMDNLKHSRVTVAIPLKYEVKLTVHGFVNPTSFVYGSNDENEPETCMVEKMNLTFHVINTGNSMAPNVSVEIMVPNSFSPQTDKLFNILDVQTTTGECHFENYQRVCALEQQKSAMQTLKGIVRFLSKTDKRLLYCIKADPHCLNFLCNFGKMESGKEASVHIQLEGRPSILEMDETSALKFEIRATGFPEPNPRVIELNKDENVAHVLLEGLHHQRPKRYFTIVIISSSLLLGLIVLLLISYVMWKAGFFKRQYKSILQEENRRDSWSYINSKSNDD
α4β7, sequence (P26010 20-798): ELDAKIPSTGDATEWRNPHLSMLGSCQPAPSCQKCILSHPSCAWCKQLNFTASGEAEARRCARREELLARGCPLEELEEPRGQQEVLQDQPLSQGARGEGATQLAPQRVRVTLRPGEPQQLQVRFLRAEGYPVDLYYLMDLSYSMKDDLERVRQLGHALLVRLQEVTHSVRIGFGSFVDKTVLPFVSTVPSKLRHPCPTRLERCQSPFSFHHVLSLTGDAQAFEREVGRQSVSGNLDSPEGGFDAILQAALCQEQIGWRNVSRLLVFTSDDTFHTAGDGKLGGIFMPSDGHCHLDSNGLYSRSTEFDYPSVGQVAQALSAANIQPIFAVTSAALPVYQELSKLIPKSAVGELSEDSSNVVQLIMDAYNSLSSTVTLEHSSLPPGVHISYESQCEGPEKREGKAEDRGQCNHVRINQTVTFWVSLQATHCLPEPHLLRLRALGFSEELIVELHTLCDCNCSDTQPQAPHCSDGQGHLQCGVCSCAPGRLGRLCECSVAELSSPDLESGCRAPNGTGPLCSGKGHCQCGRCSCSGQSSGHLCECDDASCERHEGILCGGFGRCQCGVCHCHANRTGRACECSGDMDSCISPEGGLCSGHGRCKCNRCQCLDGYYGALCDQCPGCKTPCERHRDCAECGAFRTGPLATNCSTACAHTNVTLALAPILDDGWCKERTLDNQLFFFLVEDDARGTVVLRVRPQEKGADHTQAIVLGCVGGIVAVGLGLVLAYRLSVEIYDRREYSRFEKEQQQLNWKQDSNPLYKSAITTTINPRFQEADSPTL
Format: cell-based
Set-up: host or cells: RPMI 8866 human B lymphoblastoid cells
How it was run: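 Washed RPMI 8866 cells (200,000/well) in DMEM with 0.1% BSA, 10 mM HEPES pH 7, 1 mM MnCl2 adhered to rh MAdCAM-1/Fc-coated wells with serially diluted peptides, 30-45 min at 37 °C. After three washes, bound cells quantified by MTT, A570, cell-free background subtracted for dose response.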

Row | Structure (SMILES) | IC50 [nM]
1 | CC(=O)N[C@@H]1C(=O)N(C)[C@@H](CCCNC(=N)N)C(=O)N[C@@H](CO)C(=O)N[C@@H](CC(=O)O)C(=O)N[C@@H](CC(C)C)C(=O)N[C@@H](CC(C)C)C(=O)N[C@H](C(=O)N[C@@H](Cc2ccc3ccccc3c2)C(=O)N[C@H](CCC(=O)O)C(N)=O)C(C)(C)SSC1(C)C [compound 159] (Ac-[Pen][NMeR]SDLL[Pen][2Nal][dE]-NH2; disulfide 1-7) | 1000 to 10000
2 | CC(=O)N[C@@H]1C(=O)N(C)[C@@H](CCCNC(=N)N)C(=O)N[C@@H](CO)C(=O)N[C@@H](CC(=O)O)C(=O)N[C@@H]([C@@H](C)O)C(=O)N[C@@H](CC(C)C)C(=O)N[C@H](C(=O)N[C@H](Cc2ccccc2)C(=O)N[C@@H](CCC(=O)O)C(=O)N[C@H](CCCCNC(=O)COCC(=O)NCCCC[C@@H](NC(=O)[C@H](CCC(=O)O)NC(=O)[C@@H](Cc2ccccc2)NC(=O)[C@H]2NC(=O)[C@H](CC(C)C)NC(=O)[C@H]([C@@H](C)O)NC(=O)[C@H](CC(=O)O)NC(=O)[C@H](CO)NC(=O)[C@H](CCCNC(=N)N)N(C)C(=O)[C@@H](NC(C)=O)C(C)(C)SSC2(C)C)C(N)=O)C(N)=O)C(C)(C)SSC1(C)C [compound 30] (I: Ac-[Pen][NMeR]SDTL[Pen][dF]E[dK]-NH2 / II: Ac-[Pen][NMeR]SDTL[Pen][dF]E[dK]-NH2; disulfide I:1-I:7, II:1-II:7; linker I:10-II:10 via Diglycolyl) | 100 to 500
3 | CC(=O)N[C@@H]1C(=O)N(C)[C@@H](CCCNC(=N)N)C(=O)N[C@@H](CO)C(=O)N[C@@H](CC(=O)O)C(=O)N[C@@H]([C@@H](C)O)C(=O)N[C@@H](CC(C)C)C(=O)N[C@H](C(=O)N[C@@H](Cc2c[nH]c3ccccc23)C(=O)N[C@@H](CCC(N)=O)C(=O)N[C@H](CCCCNC(=O)COCC(=O)NCCCC[C@@H](NC(=O)[C@H](CCC(N)=O)NC(=O)[C@H](Cc2c[nH]c3ccccc23)NC(=O)[C@H]2NC(=O)[C@H](CC(C)C)NC(=O)[C@H]([C@@H](C)O)NC(=O)[C@H](CC(=O)O)NC(=O)[C@H](CO)NC(=O)[C@H](CCCNC(=N)N)N(C)C(=O)[C@@H](NC(C)=O)C(C)(C)SSC2(C)C)C(N)=O)C(N)=O)C(C)(C)SSC1(C)C [compound 82] (I: Ac-[Pen][NMeR]SDTL[Pen]WQ[dK]-NH2 / II: Ac-[Pen][NMeR]SDTL[Pen]WQ[dK]-NH2; disulfide I:1-I:7, II:1-II:7; linker I:10-II:10 via Diglycolyl) | 50 to 100
4 | CC(=O)N[C@@H]1C(=O)N(C)[C@@H](CCCNC(=N)N)C(=O)N[C@@H](CO)C(=O)N[C@@H](CC(=O)O)C(=O)N[C@@H]([C@@H](C)O)C(=O)N[C@@H](CC(C)C)C(=O)N[C@H](C(=O)N[C@H](Cc2ccc3ccccc3c2)C(=O)N[C@@H](CCC(=O)O)C(=O)N[C@H](CCCCNC(=O)COCC(=O)NCCCC[C@@H](NC(=O)[C@H](CCC(=O)O)NC(=O)[C@@H](Cc2ccc3ccccc3c2)NC(=O)[C@H]2NC(=O)[C@H](CC(C)C)NC(=O)[C@H]([C@@H](C)O)NC(=O)[C@H](CC(=O)O)NC(=O)[C@H](CO)NC(=O)[C@H](CCCNC(=N)N)N(C)C(=O)[C@@H](NC(C)=O)C(C)(C)SSC2(C)C)C(N)=O)C(N)=O)C(C)(C)SSC1(C)C [compound 35] (I: Ac-[Pen][NMeR]SDTL[Pen][d2Nal]E[dK]-NH2 / II: Ac-[Pen][NMeR]SDTL[Pen][d2Nal]E[dK]-NH2; disulfide I:1-I:7, II:1-II:7; linker I:10-II:10 via Diglycolyl) | 100 to 500
5 | CC(=O)N[C@@H]1C(=O)N(C)[C@@H](CCCNC(=N)N)C(=O)N[C@@H](CO)C(=O)N[C@@H](CC(=O)O)C(=O)N[C@@H]([C@@H](C)O)C(=O)N[C@@H](CC(C)C)C(=O)N[C@H](C(=O)N[C@@H](Cc2ccc(C#N)cc2)C(=O)N[C@@H](CCC(=O)O)CC(=O)N[C@H](CCCCNC(=O)COCC(=O)NCCCC[C@@H](NC(=O)C[C@H](CCC(=O)O)NC(=O)[C@H](Cc2ccc(C#N)cc2)NC(=O)[C@H]2NC(=O)[C@H](CC(C)C)NC(=O)[C@H]([C@@H](C)O)NC(=O)[C@H](CC(=O)O)NC(=O)[C@H](CO)NC(=O)[C@H](CCCNC(=N)N)N(C)C(=O)[C@@H](NC(C)=O)C(C)(C)SSC2(C)C)C(N)=O)C(N)=O)C(C)(C)SSC1(C)C [compound 139] (I: Ac-[Pen][NMeR]SDTL[Pen][Phe(4-CN)][β3hE][dK]-NH2 / II: Ac-[Pen][NMeR]SDTL[Pen][Phe(4-CN)][β3hE][dK]-NH2; disulfide I:1-I:7, II:1-II:7; linker I:10-II:10 via Diglycolyl) | < 10
6 | CC(=O)N[C@@H]1C(=O)N(C)[C@@H](CCCNC(=N)N)C(=O)N[C@@H](CO)C(=O)N[C@@H](CC(=O)O)C(=O)N[C@@H]([C@@H](C)O)C(=O)N[C@@H](CC(C)C)C(=O)N[C@H](C(=O)N[C@H](Cc2c[nH]c3ccccc23)C(=O)N[C@@H](CCC(=O)O)C(=O)N[C@H](CCCCNC(=O)COCC(=O)NCCCC[C@@H](NC(=O)[C@H](CCC(=O)O)NC(=O)[C@@H](Cc2c[nH]c3ccccc23)NC(=O)[C@H]2NC(=O)[C@H](CC(C)C)NC(=O)[C@H]([C@@H](C)O)NC(=O)[C@H](CC(=O)O)NC(=O)[C@H](CO)NC(=O)[C@H](CCCNC(=N)N)N(C)C(=O)[C@@H](NC(C)=O)C(C)(C)SSC2(C)C)C(N)=O)C(N)=O)C(C)(C)SSC1(C)C [compound 28] (I: Ac-[Pen][NMeR]SDTL[Pen][dW]E[dK]-NH2 / II: Ac-[Pen][NMeR]SDTL[Pen][dW]E[dK]-NH2; disulfide I:1-I:7, II:1-II:7; linker I:10-II:10 via Diglycolyl) | 50 to 100
7 | CCCCCCCCCCCCCC(=O)N[C@@H]1C(=O)N(C)[C@@H](CCCNC(=N)N)C(=O)N[C@@H](CO)C(=O)N[C@@H](CC(=O)O)C(=O)N[C@@H]([C@@H](C)O)C(=O)N[C@@H](CC(C)C)C(=O)N[C@H](C(=O)N[C@@H](Cc2ccc(C(C)(C)C)cc2)C(=O)N[C@@H](CCC(=O)O)CC(=O)N[C@H](CCCCN)C(N)=O)C(C)(C)SSC1(C)C [compound 181] (Myristoyl-[Pen][NMeR]SDTL[Pen][Phe(4-tBu)][β3hE][dK]-NH2; disulfide 1-7) | 1000 to 10000
8 | CC(=O)N[C@@H]1C(=O)N(C)[C@@H](CCCNC(=N)N)C(=O)N[C@@H](CO)C(=O)N[C@@H](CC(=O)O)C(=O)N[C@@H]([C@@H](C)O)C(=O)N[C@@H](Cc2ccc(O)cc2)C(=O)N[C@H](C(=O)N[C@@H](Cc2ccc3ccccc3c2)C(=O)N[C@H](CCC(=O)O)C(N)=O)C(C)(C)SSC1(C)C [compound 164] (Ac-[Pen][NMeR]SDTY[Pen][2Nal][dE]-NH2; disulfide 1-7) | 1000 to 10000
9 | CC(=O)N[C@@H]1C(=O)N(C)[C@@H](CCCNC(=N)N)C(=O)N[C@@H](CO)C(=O)N[C@@H](CC(=O)O)C(=O)N[C@@H]([C@@H](C)O)C(=O)N[C@@H](CC(C)C)C(=O)N[C@H](C(=O)N[C@@H](Cc2ccc(O)cc2)C(=O)N[C@H](CCC(=O)O)C(=O)N[C@H](CCCCNC(=O)COCC(=O)NCCCC[C@@H](NC(=O)[C@@H](CCC(=O)O)NC(=O)[C@H](Cc2ccc(O)cc2)NC(=O)[C@H]2NC(=O)[C@H](CC(C)C)NC(=O)[C@H]([C@@H](C)O)NC(=O)[C@H](CC(=O)O)NC(=O)[C@H](CO)NC(=O)[C@H](CCCNC(=N)N)N(C)C(=O)[C@@H](NC(C)=O)C(C)(C)SSC2(C)C)C(N)=O)C(N)=O)C(C)(C)SSC1(C)C [compound 123] (I: Ac-[Pen][NMeR]SDTL[Pen]Y[dE][dK]-NH2 / II: Ac-[Pen][NMeR]SDTL[Pen]Y[dE][dK]-NH2; disulfide I:1-I:7, II:1-II:7; linker I:10-II:10 via Diglycolyl) | 50 to 100
10 | CC(=O)N[C@@H]1C(=O)N(C)[C@@H](CCCNC(=N)N)C(=O)N[C@@H](CO)C(=O)N[C@@H](CC(=O)O)C(=O)N[C@@H]([C@@H](C)O)C(=O)N[C@@H](CC(C)C)C(=O)N[C@H](C(=O)N2Cc3ccccc3C[C@H]2C(=O)N[C@H](CCC(=O)O)C(=O)N[C@H](CCCCNC(=O)COCC(=O)NCCCC[C@@H](NC(=O)[C@@H](CCC(=O)O)NC(=O)[C@@H]2Cc3ccccc3CN2C(=O)[C@@H]2CSSC(C)(C)[C@H](NC(C)=O)C(=O)N(C)[C@@H](CCCNC(=N)N)C(=O)N[C@@H](CO)C(=O)N[C@@H](CC(=O)O)C(=O)N[C@@H]([C@@H](C)O)C(=O)N[C@@H](CC(C)C)C(=O)N2)C(N)=O)C(N)=O)CSSC1(C)C [compound 93] (I: Ac-[Pen][NMeR]SDTLC[Tic][dE][dK]-NH2 / II: Ac-[Pen][NMeR]SDTLC[Tic][dE][dK]-NH2; disulfide I:1-I:7, II:1-II:7; linker I:10-II:10 via Diglycolyl) | 500 to 1000
11 | CC(=O)N[C@@H]1C(=O)N(C)[C@@H](CCCNC(=N)N)C(=O)N[C@@H](CO)C(=O)N[C@@H](CC(=O)O)C(=O)N[C@@H]([C@@H](C)O)C(=O)N[C@@H](CC(C)C)C(=O)N[C@H](C(=O)N[C@@H](Cc2ccc(-c3ccccc3)cc2)C(=O)N[C@@H](CCC(=O)O)C(=O)N(C)[C@@H](CCCCNC(=O)COCC(=O)NCCCC[C@@H](C(N)=O)N(C)C(=O)[C@H](CCC(=O)O)NC(=O)[C@H](Cc2ccc(-c3ccccc3)cc2)NC(=O)[C@H]2NC(=O)[C@H](CC(C)C)NC(=O)[C@H]([C@@H](C)O)NC(=O)[C@H](CC(=O)O)NC(=O)[C@H](CO)NC(=O)[C@H](CCCNC(=N)N)N(C)C(=O)[C@@H](NC(C)=O)C(C)(C)SSC2(C)C)C(N)=O)C(C)(C)SSC1(C)C [compound 136] (I: Ac-[Pen][NMeR]SDTL[Pen][Bip]E[NMeK]-NH2 / II: Ac-[Pen][NMeR]SDTL[Pen][Bip]E[NMeK]-NH2; disulfide I:1-I:7, II:1-II:7; linker I:10-II:10 via Diglycolyl) | < 10
